From article PMC6832221 (Viruses, 2019)
Like-named read-outs stand apart in the source and are kept apart here.

How the values were obtained:
[1] = tested on: HCV NS3 protein level (genotype 1b); test: GT 1b Western blot of HCV protein in Bart79I RNA-transfected Huh7.5 cells; assay type: cell-based, Hepatitis C virus; conditions: for T1/2 (time for 50% reduction of HCV protein): compound at 10 μM, Western blot, Huh7.5-Bart79I (genotype 1b)
[2] = set-up: method as in ref 25 = [25]; conditions: mice; cited from earlier work
Huh7.5 cells = test: in vitro; assay type: cell-based; conditions: Table 1 summary; read-out: CC50 (M), GT 2a luciferase reporter assay
[3] = tested on: HCV NS3 protein expression (genotype 2a); test: GT 2a Western blot of HCV NS3 protein in J6/JFH1 RNA-transfected Huh7.5 cells; assay type: cell-based, Hepatitis C virus; conditions: for T1/2 (time required for 50% reduction of the HCV NS3 protein): compound at 10 μM, Western blot, Huh7.5-J6/JFH1 (genotype 2a)
[4] = tested on: genotype 1b HCV replication (Bart79I); test: GT 1b RT-PCR in Bart79I replicon Huh7.5 cells; assay type: cell-based, Hepatitis C virus
[5] = In vivo pharmacokinetic study of SVF in mice; conditions: male, ICR, mouse, plasma
[6] = tested on: genotype 2a HCV replication (Rluc-J6/JFH1); test: GT 2a luciferase reporter assay in Rluc-J6/JFH1 RNA-transfected Huh7.5 cells; assay type: cell-based, Hepatitis C virus
[7] = tested on: genotype 2a HCV replication (J6/JFH1); test: GT 2a RT-PCR in J6/JFH1 RNA-transfected Huh7.5 cells; assay type: cell-based, Hepatitis C virus
in vitro = assay type: cell-based; conditions: human; Table 1 summary; read-out: CC50 (M), GT 2a luciferase reporter assay
[8] = target: T1, genotype 1b HCV NS3 helicase (Hepatitis C virus genotype 1b, UniProt Q9WMX2); test: Graphene oxide (GO)-based NS3 helicase inhibition assay; assay type: biochemical
T1 construct: 2 nM of HCV NS3 helicase in a total volume of 60 μL
T1 sequence (Q9WMX2 1027-1657): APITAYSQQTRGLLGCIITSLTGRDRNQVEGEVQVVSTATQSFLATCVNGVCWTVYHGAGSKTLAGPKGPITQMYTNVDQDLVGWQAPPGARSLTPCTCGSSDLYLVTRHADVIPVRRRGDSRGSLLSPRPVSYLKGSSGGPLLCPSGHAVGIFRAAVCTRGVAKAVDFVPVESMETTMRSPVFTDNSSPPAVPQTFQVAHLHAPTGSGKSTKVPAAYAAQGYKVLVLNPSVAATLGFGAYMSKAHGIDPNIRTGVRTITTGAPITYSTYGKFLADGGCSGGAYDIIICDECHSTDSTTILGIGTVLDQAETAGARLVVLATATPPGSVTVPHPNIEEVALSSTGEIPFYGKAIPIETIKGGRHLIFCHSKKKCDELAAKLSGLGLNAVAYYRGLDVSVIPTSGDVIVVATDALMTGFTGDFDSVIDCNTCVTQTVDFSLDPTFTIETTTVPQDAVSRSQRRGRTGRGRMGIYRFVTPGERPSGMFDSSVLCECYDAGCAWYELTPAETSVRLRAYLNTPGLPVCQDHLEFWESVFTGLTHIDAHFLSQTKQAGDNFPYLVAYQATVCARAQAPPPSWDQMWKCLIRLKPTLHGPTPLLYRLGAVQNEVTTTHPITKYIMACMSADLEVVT

[9] = cited from earlier work
HCV replication = tested on: HCV replication; set-up: method as in ref 14 = [14]; conditions: previous study, cited from earlier work
viral helicase NS3 = target: viral helicase NS3; set-up: method as in ref 14 = [14]; conditions: previous study; cited from earlier work
[10] = set-up: method as in ref 14 = [14]; conditions: previous study; cited from earlier work
[11] = read-out: EC50 (M), GT 2a Western blot, Table 1 summary
[12] = read-out: EC50 (M), GT 1b RT-PCR, Table 1 summary
[13] = read-out: EC50 (M), GT 2a RT-PCR, Table 1 summary
[14] = Hepatitis C virus, Huh7.5, read-out: EC50 (M), GT 1b Western blot
[15] = Hepatitis C virus, GETYPE2A|GT2A, Huh7.5, read-out: EC50 (M), GT 2a luciferase reporter assay, Table 1 summary

SMILES: Oc1ccc(/C=C/c2cc(O)cc3c2C(c2cc(O)cc(O)c2)C(c2ccc(O)cc2)O3)cc1 (racemic) [SVF, (±)- -viniferin]
- T1/2 (time for 50% reduction of HCV protein) [1]: 13.1 h
- EC50 ([1]; read-out: EC50 (M), GT 1b Western blot, Table 1 summary): 9e-07 M
- oral bioavailability [2]: below 1%
- CC50 (Huh7.5 cells): > 1e-05 M
- T1/2 (time required for 50% reduction of the HCV NS3 protein) [3]: 37.1 h
- EC50 [3, 11]: 6.4e-06 M
- EC50 [4, 12]: 1.7e-06 M
- Cmax ([5]; ip, intraperitoneal dose of 15 mg/kg, read-out: Cmax): 2130 ± 403 ng/mL
- Tmax ([5]; oral dose of 50 mg/kg): 0.375 h
- Cmax ([5]; oral dose of 50 mg/kg, read-out: mean Cmax): 53.5 ± 28.2 ng/mL
- EC50 ([6]; read-out: EC50 (M), GT 2a luciferase reporter assay, Table 1 summary): 2e-07 M
- EC50 [7, 13]: 9.3e-06 M

SMILES: CC(=O)Oc1ccc(/C=C/c2cc(OC(C)=O)cc3c2C(c2cc(OC(C)=O)cc(OC(C)=O)c2)C(c2ccc(OC(C)=O)cc2)O3)cc1 (racemic) [SVF-5Ac, penta-acetylated (±)- -viniferin]
- EC50 [1, 14]: 8e-07 M
- T1/2 (time for 50% reduction of HCV protein) [1]: 29.6 h
- CC50 at 72 h (in vitro): > 1e-05 M
- EC50 ([3]; Hepatitis C virus, GETYPE2A|GT2A, Huh7.5, read-out: EC50 (M), GT 2a Western blot, Table 1 summary): 1e-06 M
- T1/2 (time required for 50% reduction of the HCV NS3 protein) [3]: >72 h
- EC50 ([4]; Hepatitis C virus, GETYPE1B|GT1B, Huh7.5, read-out: EC50 (M), GT 1b RT-PCR, Table 1 summary): 1.04e-05 M
- EC50 [6, 15]: 2.4e-06 M
- EC50 ([7]; Hepatitis C virus, GETYPE2A|GT2A, Huh7.5, read-out: EC50 (M), GT 2a RT-PCR, Table 1 summary): 4.7e-06 M

SMILES: Oc1ccc(/C=C/c2cc(O)cc3c2C(c2cc(O)cc(O)c2)C(c2ccc(O)cc2)O3)cc1 (stereo not drawn) [EVF, (+)-ε-viniferin]
- EC50 [1, 14]: 9e-07 M
- T1/2 (time for 50% reduction of HCV protein) [1]: 58.2 h
- CC50 at 72 h (in vitro): > 1e-05 M
- T1/2 (time required for 50% reduction of the HCV NS3 protein) [3]: 35.1 h
- EC50 [3, 11]: 1.2e-06 M
- EC50 [4, 12]: 7e-06 M
- EC50 [6, 15]: 1e-07 M
- fold more antiviral activity than SVF ([6]; genotype 2a renilla luciferase-based HCV replication assay): 2.0 fold
- IC50 ([8]; Cy5-dsDNA substrate, 2 nM HCV NS3 helicase, fluorescence Ex/Em 650/675 nm, read-out: IC50 (half maximal inhibitory concentration), NS3 helicase): 0.0587 µM
- fold more antiviral activity than SVF ([7]; genotype 2a RT-PCR-based HCV replication assay): 3.2 fold
- EC50 [7, 13]: 2.9e-06 M

SMILES: Oc1ccc(/C=C/c2cc(O)cc3c2C(c2cc(O)cc(O)c2)C(c2ccc(O)cc2)O3)cc1 (stereo not shown) [viniferin]
- oral bioavailability [9]: less than 1%
- EC50 (HCV replication; read-out: EC50 value for inhibiting HCV replication in vitro): 1 µM

SMILES: Oc1ccc([C@H]2Oc3cc(O)cc(/C=C/c4ccc5c(c4)[C@@H](c4cc(O)cc6c4[C@H](c4cc(O)cc(O)c4)[C@@H](c4ccc(O)cc4)O6)[C@H](c4ccc(O)cc4)O5)c3[C@@H]2c2cc(O)cc(O)c2)cc1 [vitisin B]
- EC50 (HCV replication; read-out: EC50, anti-HCV activity): 0.006 µM
- IC50 (viral helicase NS3): 0.003 µM
- CC50 [10]: > 10 µM

SMILES: Oc1ccc(/C=C/c2cc(O)cc(O)c2)cc1 [resveratrol, reference compound]
- dose-dependent increase of fluorescence (helicase inhibition) ([8]; negative control, up to a concentration of 10 μM): did not
